Experimental findings from US7968128B2, “Plant extract compositions for affecting sleep” (VIVA Pharmaceutical Inc., priority 2008, dated 2011) are described below.

Common to all, as to type: in vivo, Swiss mice
Data set [1] has as its system mice. Description: Sodium barbital induced sleep time measurement. How it is done: (§1) Male and female Swiss mice having weights between about 18 to 22 g were used in the Examples provided below. Mice were housed in groups of 10 mice in a breeding room having a controlled temperature of about 22±2° C. Each group had free access to standard diet pellets and tap water.
(§2) Each of the extract combinations “BS” and “BY” produced in Example 1, was prepared for oral administration (PO) by ultrasonically dispersing each extract in distilled water containing about 0.5% Tween-80. Diazepam was also prepared for administration by ultrasonically dispersing the Diazepam in distilled water containing about 0.5% Tween-80.
(§3) Each of the BY, BS, and Diazepam compositions was administered orally to separate groups of mice at a dosage of 10 mL/kg body weight.
(§4) Dosages of the BS, BY, Diazepam compositions, and the sterile distilled water were administered orally to groups of mice, wherein each group comprised at least 10 mice.
Mice were administered 90 mg/kg sodium barbital via intraperitoneal injection (ip). Mice were then positioned on their back. The time that elapsed between administration of the sodium barbital and when each animal lost their righting reflex represented the time period between latency to the onset of sleep. The BS, BY, Diazepam, and the control treatments were administered to separate groups of mice. Each group of mice received their treatment about 7 days prior to the administration of the sodium barbital. The duration of sleeping time was calculated as the time interval between the loss of righting reflex to the time of recovery of this reflex. In studying the effects of the BS and BY extracts, the comparison of the durations of sleeping time between mice receiving the BS, BY, Diazepam treatments and the control treatments, was used as the main criterion of measurement.

Data set [2] concerns mice. Description: Locomotor activity measurements (square arena). The note with it: for Locomotor activity count: dose 1 mg/kg oral, mean ± SE, n = 10. As for the experimental part: as §1, §2, §3, §4
The effects of the BS treatments and the BY treatments on inhibition of central nervous system were evaluated by measurements of the locomotor activities of mice.
Each mouse was placed in the center of a square arena having dimensions of approximately 60 cm×60 cm×35 cm. […] The arena was illuminated using red 25 W bulbs on the ceiling. The total number of squares each mouse entered in a 5 minute period was recorded by an overhead video camera. The camera was linked to a monitor and video recorder in an adjacent laboratory.
The locomotor activity of the mice were recorded both before and 30-minutes, 60-minutes, 120-minutes, and 180-minutes after administration of one of BS, BY, Diazepam, and the control.
All locomotor activity recordings were carried out with the observer unaware of the treatment that was administered to each of the mice.

Data set [3] has as its system mice. The data set can be described thus: Traction test. As for the experimental part:
as §1
Each of the extract combinations “BS” and “BY” produced in Example 1, was prepared for oral administration (PO) by ultrasonically dispersing each extract in distilled water containing about 0.5% Tween-80. Diazepam was also prepared for administration by ultrasonically dispersing the Diazepam in distilled water containing about 0.5% Tween-80. […]
The effects of the BS and BY compositions on inhibition of muscle coordination systems were evaluated using a traction test.
A wire having a diameter of about 1.6 mm and length of about 30 cm was stretched and secured horizontally at a height of about 30 cm above a surface. […] The duration of time each mouse clung to the wire was recorded up to a maximum of 60 seconds.
The test was performed about 60 minutes after the administration of one of the BS, BY, Diazepam, and the control compositions. […] The durations of clinging time measured for each group of mice were calculated using the mean value of triplicates for each mouse. If the duration of clinging time was greater than 60 seconds, the mouse was released from the wire, and the clinging time was recorded 60 seconds.

Data set [4] concerns mice. Description: Inclined plane test. How it is done: as §1, §2
Each of the BY, BS, and Diazepam compositions was administered orally to separate groups of mice at a dosage of 10 mL/kg body weight. […]
Effects of the BS and BY compositions on the motor functions of mice were evaluated using an inclined plane test.
The inclined plane consisted of two rectangular steel boards connected at one end by a hinge. […] The maximum inclination of the plane at which a mouse could maintain itself in position for at least 5 seconds was recorded, and interpreted to represent the mouse's functional ability. The test was performed in triplicate for each mouse and the mean value was recorded as the maximum inclination.

[5] abbreviates: dose 1.0 mg/kg oral, sodium barbital 90 mg/kg ip, mean ± SE, n = 10.

The structures appear in SMILES notation.

Consider `CN1C(=O)CN=C(c2ccccc2)c2cc(Cl)ccc21` [Diazepam], for which, in the data set with mice [1] (dosage 1.0 mg/kg), the “sodium barbital-induced sleeping time compared to the controls (in words)” value was “significantly prolonged”. Further, in the data set on mice [1] (setting [5]), the “Duration of Sleep” value turned out to be 72.8 ± 7.5 min. For the same molecule, the Sleep latency in the data set with mice [1] (setting [5]) is 169.1 ± 12.4 s. For the same molecule, the “effects on the locomotor activity of the mice (in words)” value in the data set on mice [2] (all doses and times of Table 2) was “None of the BS, BY and Diazepam compositions had any significant effects”. The Locomotor activity count in the data set with mice [2] (0 minutes (before administration), squares entered in 5 min) is 80.4 ± 6.7; with mice [2] (30 minutes after administration), 68.9 ± 4.9; in the data set on mice [2] (60 minutes after administration), 56.7 ± 3.8; in the data set on mice [2] (120 minutes after administration), 52.6 ± 3.6; with mice [2] (180 minutes after administration), 47.6 ± 3.4. Besides, the Duration of clinging in the data set with mice [3] (dose 9 mg/kg oral, about 60 minutes after administration, maximum 60 seconds, mean ± SE, n = 10) is 19.6 ± 4.9 s. The “durations of clinging time compared to control (in words)” value in the data set with mice [3] (doses of Table 3) is “markedly reduced”. The Maximum inclination with mice [4] (dose 9 mg/kg oral, position held at least 5 seconds, mean ± SE, n = 10) is 51.5 ± 0.9 degrees. For the same molecule, the “degrees of inclination compared to control (in words)” value with mice [4] (doses of Table 4) is recorded as “markedly reduced”.
